Test system: HCT116 colorectal cancer cells
Test: Cisplatin sensitization assay (96 h cell viability MTS);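 also: Test-compound concentration that lowers the Cisplatin IC50 by a set fold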
Format: cell-based
Details: compound and Cisplatin added simultaneously, Cisplatin sensitization value
Procedure: Compounds can be screened for their ability to sensitize HCT116 colorectal cancer cells to Cisplatin using a 96 h cell viability (MTS) assay. […] Compounds and Cisplatin are then both added simultaneously to the cell media in 2-fold serial dilutions from a top final concentration of 10 μM as a full matrix of concentrations in a final cell volume of 200 μl, and the cells are then incubated at 37° C. in 5% CO2. After 96 h, 40 μl of MTS reagent (Promega G358a) is added to each well and the cells are incubated for 1 h at 37° C. in 5% CO2.
Compounds with a Cisplatin sensitization value of <0.02 μM are marked with “+++.” Compounds with a Cisplatin sensitization value>0.02 μM but <0.2 μM are marked with “++.” Compounds with a Cisplatin sensitization value>0.2 μM but <5 μM are marked with “+.”

SMILES	Cisplatin Sensitization Assay
CCOC1CN(C(=O)C2CCN(c3ccncc3NC(=O)c3c(N)nn4cc(F)cnc34)CC2)C1 [I-G-91, 2-amino-N-(4-(4-(3-ethoxyazetidine-1-carbonyl)piperidin-1-yl)pyridin-3-yl)-6-fluoropyrazolo[1,5-a]pyrimidine-3-carboxamide]	+++ (Cisplatin sensitization value of <0.02 μM)
CNC1CCN(c2ccncc2NC(=O)c2c(N)nn3cc(Cl)cnc23)CC1 [I-N-87, 2-amino-6-chloro-N-(4-(4-(methylamino)piperidin-1-yl)pyridin-3-yl)pyrazolo[1,5-a]pyrimidine-3-carboxamide]	++ (Cisplatin sensitization value>0.02 μM but <0.2 μM)
CN1CC[C@@H](OC2CCN(c3c(F)cncc3NC(=O)c3c(N)nn4cc(F)cnc34)CC2)C1 [I-N-132, (R)-2-amino-6-fluoro-N-(5-fluoro-4-(4-((1-methylpyrrolidin-3-yl)oxy)piperidin-1-yl)pyridin-3-yl)pyrazolo[1,5-a]pyrimidine-3-carboxamide]	+++ (Cisplatin sensitization value of <0.02 μM)
CN1CCN(CC2CCN(c3c(F)cncc3NC(=O)c3c(N)nn4cc(F)cnc34)CC2)CC1 [I-N-150, 2-amino-6-fluoro-N-(5-fluoro-4-(4-((4-methylpiperazin-1-yl)methyl)piperidin-1-yl)pyridin-3-yl)pyrazolo[1,5-a]pyrimidine-3-carboxamide]	+++ (Cisplatin sensitization value of <0.02 μM)
N#CCc1cnc2c(C(=O)Nc3cnccc3OC3CCCC3)c(N)nn2c1 [I-O-43, 2-amino-6-(cyanomethyl)-N-(4-(cyclopentyloxy)pyridin-3-yl)pyrazolo[1,5-a]pyrimidine-3-carboxamide]	+++ (Cisplatin sensitization value of <0.02 μM)
CN1CCN(c2ccncc2NC(=O)c2c(N)nn3cc(C(C)(C)C#N)cnc23)CC1 [I-N-76, 2-amino-6-(2-cyanopropan-2-yl)-N-(4-(4-methylpiperazin-1-yl)pyridin-3-yl)pyrazolo[1,5-a]pyrimidine-3-carboxamide]	+++ (Cisplatin sensitization value of <0.02 μM)
Nc1nn2cc(Cl)cnc2c1C(=O)Nc1cnccc1N1CCC(N2CC[C@@H](F)C2)CC1 [I-N-98, (R)-2-amino-6-chloro-N-(4-(4-(3-fluoropyrrolidin-1-yl)piperidin-1-yl)pyridin-3-yl)pyrazolo[1,5-a]pyrimidine-3-carboxamide]	+++ (Cisplatin sensitization value of <0.02 μM)
Nc1nn2cc(F)cnc2c1C(=O)Nc1cnccc1OC1CCS(=O)(=O)CC1 [I-O-45, 2-amino-N-(4-((1,1-dioxidotetrahydro-2H-thiopyran-4-yl)oxy)pyridin-3-yl)-6-fluoropyrazolo[1,5-a]pyrimidine-3-carboxamide]	+++ (Cisplatin sensitization value of <0.02 μM)
Nc1nn2cc(Cl)cnc2c1C(=O)Nc1cnccc1OC1CCOCC1 [I-O-61, 2-amino-6-chloro-N-(4-((tetrahydro-2H-pyran-4-yl)oxy)pyridin-3-yl)pyrazolo[1,5-a]pyrimidine-3-carboxamide]	+++ (Cisplatin sensitization value of <0.02 μM)
Cc1cncc(NC(=O)c2c(N)nn3cc(F)cnc23)c1N1CCN(C2CCOCC2)CC1 [I-N-123, 2-amino-6-fluoro-N-(5-methyl-4-(4-(tetrahydro-2H-pyran-4-yl)piperazin-1-yl)pyridin-3-yl)pyrazolo[1,5-a]pyrimidine-3-carboxamide]	++ (Cisplatin sensitization value>0.02 μM but <0.2 μM)
N#CCc1cnc2c(C(=O)Nc3cnccc3Oc3ccccc3)c(N)nn2c1 [I-O-25, 2-amino-6-(cyanomethyl)-N-(4-phenoxypyridin-3-yl)pyrazolo[1,5-a]pyrimidine-3-carboxamide]	+++ (Cisplatin sensitization value of <0.02 μM)
CN1CCC(Oc2ccncc2NC(=O)c2c(N)nn3cc(CC#N)cnc23)CC1 [I-O-23, 2-amino-6-(cyanomethyl)-N-(4-((1-methylpiperidin-4-yl)oxy)pyridin-3-yl)pyrazolo[1,5-a]pyrimidine-3-carboxamide]	+++ (Cisplatin sensitization value of <0.02 μM)
Nc1nn2cc(F)cnc2c1C(=O)Nc1cnccc1N1CCC2(CC1)COC2 [I-N-226, N-(4-(2-oxa-7-azaspiro[3.5]nonan-7-yl)pyridin-3-yl)-2-amino-6-fluoropyrazolo[1,5-a]pyrimidine-3-carboxamide]	+++ (Cisplatin sensitization value of <0.02 μM)
Nc1nn2cc(F)cnc2c1C(=O)Nc1cncc(F)c1N1CCC(C(=O)N2CC(O)C2)CC1 [I-G-41, 2-amino-6-fluoro-N-(5-fluoro-4-(4-(3-hydroxyazetidine-1-carbonyl)piperidin-1-yl)pyridin-3-yl)pyrazolo[1,5-a]pyrimidine-3-carboxamide]	+++ (Cisplatin sensitization value of <0.02 μM)
Nc1nn2cc(F)cnc2c1C(=O)Nc1cnccc1C1CCN(S(=O)(=O)C2CC2)CC1 [I-C-47, 2-amino-N-(4-(1-(cyclopropylsulfonyl)piperidin-4-yl)pyridin-3-yl)-6-fluoropyrazolo[1,5-a]pyrimidine-3-carboxamide]	+++ (Cisplatin sensitization value of <0.02 μM)
CN1CCN(c2ccncc2NC(=O)c2c(N)nn3cc(F)cnc23)CC1 [I-N-3, 2-amino-6-fluoro-N-(4-(4-methylpiperazin-1-yl)pyridin-3-yl)pyrazolo[1,5-a]pyrimidine-3-carboxamide]	+++ (Cisplatin sensitization value of <0.02 μM)
CN1CCOC2(CCN(c3ccncc3NC(=O)c3c(N)nn4cc(F)cnc34)CC2)C1 [I-N-183, 2-amino-6-fluoro-N-(4-(4-methyl-1-oxa-4,9-diazaspiro[5.5]undecan-9-yl)pyridin-3-yl)pyrazolo[1,5-a]pyrimidine-3-carboxamide]	+++ (Cisplatin sensitization value of <0.02 μM)
Nc1nn2cc(F)cnc2c1C(=O)Nc1cnccc1N1CCN2CCC[C@H]2C1 [I-N-21, (S)-2-amino-6-fluoro-N-(4-(hexahydropyrrolo[1,2-a]pyrazin-2(1H)-yl)pyridin-3-yl)pyrazolo[1,5-a]pyrimidine-3-carboxamide]	+++ (Cisplatin sensitization value of <0.02 μM)
Cc1nncn1-c1ccncc1NC(=O)c1c(N)nn2cc(F)cnc12 [I-N-263, 2-amino-6-fluoro-N-(4-(3-methyl-4H-1,2,4-triazol-4-yl)pyridin-3-yl)pyrazolo[1,5-a]pyrimidine-3-carboxamide]	+ (Cisplatin sensitization value>0.2 μM but <5 μM)
N#CCc1cnc2c(C(=O)Nc3cnccc3OC3CCCNC3)c(N)nn2c1 (racemic) [I-O-2, (R,S)-2-amino-6-(cyanomethyl)-N-(4-(piperidin-3-yloxy)pyridin-3-yl)pyrazolo[1,5-a]pyrimidine-3-carboxamide]	++ (Cisplatin sensitization value>0.02 μM but <0.2 μM)
Nc1nn2cc(F)cnc2c1C(=O)Nc1cnccc1N1CCC(N2CCCC2=O)CC1 [I-N-230, 2-amino-6-fluoro-N-(4-(4-(2-oxopyrrolidin-1-yl)piperidin-1-yl)pyridin-3-yl)pyrazolo[1,5-a]pyrimidine-3-carboxamide]	+++ (Cisplatin sensitization value of <0.02 μM)
CC(C#N)c1cnc2c(C(=O)Nc3cnccc3N3CCN(C4COC4)CC3)c(N)nn2c1 (stereo not shown) [I-N-143, 2-amino-6-(1-cyanoethyl)-N-(4-(4-(oxetan-3-yl)piperazin-1-yl)pyridin-3-yl)pyrazolo[1,5-a]pyrimidine-3-carboxamide]	++ (Cisplatin sensitization value>0.02 μM but <0.2 μM)
N#CCc1cnc2c(C(=O)Nc3cnccc3N3CCNCC3)c(N)nn2c1 [I-N-89, 2-amino-6-(cyanomethyl)-N-(4-(piperazin-1-yl)pyridin-3-yl)pyrazolo[1,5-a]pyrimidine-3-carboxamide]	++ (Cisplatin sensitization value>0.02 μM but <0.2 μM)
CCN1CCN(c2ccncc2NC(=O)c2c(N)nn3cc(F)cnc23)CC1 [I-N-17, 2-amino-N-(4-(4-ethylpiperazin-1-yl)pyridin-3-yl)-6-fluoropyrazolo[1,5-a]pyrimidine-3-carboxamide]	+++ (Cisplatin sensitization value of <0.02 μM)
COCC1CN(C(=O)C2CCN(c3c(F)cncc3NC(=O)c3c(N)nn4cc(F)cnc34)CC2)C1 [I-G-98, 2-amino-6-fluoro-N-(5-fluoro-4-(4-(3-(methoxymethyl)azetidine-1-carbonyl)piperidin-1-yl)pyridin-3-yl)pyrazolo[1,5-a]pyrimidine-3-carboxamide]	+++ (Cisplatin sensitization value of <0.02 μM)
CC(C)(O)C1CCN(c2ccncc2NC(=O)c2c(N)nn3cc(Cl)cnc23)CC1 [I-N-69, 2-amino-6-chloro-N-(4-(4-(2-hydroxypropan-2-yl)piperidin-1-yl)pyridin-3-yl)pyrazolo[1,5-a]pyrimidine-3-carboxamide]	+++ (Cisplatin sensitization value of <0.02 μM)
Nc1nn2cc(F)cnc2c1C(=O)Nc1cncc(F)c1N1CCC(S(=O)(=O)N2CCN3CCC2CC3)CC1 [I-N-273, N-(4-(4-(1,4-diazabicyclo[3.2.2]nonan-4-ylsulfonyl)piperidin-1-yl)-5-fluoropyridin-3-yl)-2-amino-6-fluoropyrazolo[1,5-a]pyrimidine-3-carboxamide]	+++ (Cisplatin sensitization value of <0.02 μM)
CC(C)N1CCCC1C(=O)N1CCN(c2c(F)cncc2NC(=O)c2c(N)nn3cc(F)cnc23)CC1 (stereo not shown) [I-N-205, 2-amino-6-fluoro-N-(5-fluoro-4-(4-(1-isopropylpyrrolidine-2-carbonyl)piperazin-1-yl)pyridin-3-yl)pyrazolo[1,5-a]pyrimidine-3-carboxamide]	++ (Cisplatin sensitization value>0.02 μM but <0.2 μM)
